In PMC10076258, “New carbohydrate binding domains identified by phage display based functional metagenomic screens of human gut microbiota” (Communications Biology, 2023):
Values belong to the molecule of their own block, whether it stands above or below them.

Key:
[1] = biological target: T1, MN3 (unidentified, UniProt Z9ZPU1GRL3); assay: isothermal titration calorimetry; assay type: binding, Homo sapiens; details: 20 mM HEPES, 150 mM NaCl, pH 7.5; sequential two-sites model, stronger site
T1 construct: metagenomic phage display insert in pET-28a(+) (EcoRI/HindIII), N- and C-terminal His6 kept, E. coli BL21(DE3); monomer (~33 kDa) and dimer (~77 kDa); GenBank entry within MN313892-MN313895, ON711254-ON711279, not assigned in text
T1 sequence (Z9ZPU1GRL3 1-298): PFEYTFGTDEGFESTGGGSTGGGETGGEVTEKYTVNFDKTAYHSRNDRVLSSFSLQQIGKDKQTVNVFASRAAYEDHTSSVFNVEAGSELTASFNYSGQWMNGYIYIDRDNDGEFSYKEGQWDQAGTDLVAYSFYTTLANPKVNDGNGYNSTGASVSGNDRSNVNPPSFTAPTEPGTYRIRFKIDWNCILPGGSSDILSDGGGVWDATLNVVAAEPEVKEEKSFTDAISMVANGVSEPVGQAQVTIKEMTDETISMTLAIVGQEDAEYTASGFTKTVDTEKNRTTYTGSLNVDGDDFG

[2] = biological target: T2, MU1 (unidentified, UniProt Z9NE32H8P7); assay: isothermal titration calorimetry; assay type: binding, Homo sapiens; details: 20 mM HEPES, 150 mM NaCl, pH 7.5; sequential two-sites model, stronger site
T2 construct: metagenomic phage display insert in pET-28a(+) (NdeI/XhoI; forward primer in the T7 vector upstream of the insert), N-terminal His6 kept, E. coli BL21(DE3); monomer, ~39 kDa by SEC; GenBank entry within MN313892-MN313895, ON711254-ON711279, not assigned in text
T2 sequence (Z9NE32H8P7 1-238): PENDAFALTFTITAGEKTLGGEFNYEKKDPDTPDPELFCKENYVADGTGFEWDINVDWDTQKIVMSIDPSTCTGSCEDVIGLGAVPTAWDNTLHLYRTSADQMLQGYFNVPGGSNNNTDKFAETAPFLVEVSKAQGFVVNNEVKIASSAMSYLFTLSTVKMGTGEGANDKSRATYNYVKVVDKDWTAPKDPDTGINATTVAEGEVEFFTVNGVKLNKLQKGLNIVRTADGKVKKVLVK

[3] = biological target: T3, Fetuin (UniProt P12763 19-359, sialylated); assay: ITC; VP-ITC; protein in the sample cell, ligand titrated (20 or 35 injections at intervals of 180 s); buffer mostly 20 mM HEPES, 150 mM NaCl, pH 7.5; single run; details: both partners purified
T3 construct: fetuin, a glycoprotein used as a glycan ligand in calorimetry; also called sialylated fetuin
T3 sequence (looked up): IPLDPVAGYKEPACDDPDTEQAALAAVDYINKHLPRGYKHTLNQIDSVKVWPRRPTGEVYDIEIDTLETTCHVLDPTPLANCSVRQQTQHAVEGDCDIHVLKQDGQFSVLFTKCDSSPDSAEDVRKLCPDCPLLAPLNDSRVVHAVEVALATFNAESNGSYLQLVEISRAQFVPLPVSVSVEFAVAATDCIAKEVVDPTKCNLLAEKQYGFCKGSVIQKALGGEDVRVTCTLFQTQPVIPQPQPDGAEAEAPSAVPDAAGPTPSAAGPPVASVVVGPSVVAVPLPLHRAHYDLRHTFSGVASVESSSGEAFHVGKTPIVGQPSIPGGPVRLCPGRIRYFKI

[4] = biological target: MN3 (human fecal metagenome (organism not identified)); assay: SEC; HiPrep 26/60 HR Sephacryl S-200, 150 mM NaCl, 20 mM Tris pH 7.5, mostly 1.0 ml/min

Kd [1]: 36.8 µM
Kd [2]: 20.8 µM
Molecule: C#CCN(C(C)=O)[C@@H]1O[C@H](CO)[C@@H](O[C@@H]2O[C@H](CO)[C@H](O)[C@H](O[C@@H]3O[C@H](CO)[C@@H](O[C@@H]4O[C@H](CO)[C@H](O)[C@H](O)[C@H]4O[C@@H]4O[C@@H](C)[C@@H](O)[C@@H](O)[C@@H]4O)[C@H](O)[C@H]3NC(C)=O)[C@H]2O)[C@H](O)[C@H]1O [H antigen type-2 pentaose]

Kd [3]: 239 µM
B1: MU3 (domain or fragment)
chain: QTPKDVTVVEKYQADGTGFSHTINVDWDKQKIVASIDFSNGGDDKDILAMTTGDSFTAFQTSTYRTMHWYCNQTAKQISGFFAKSGAGNNNTGRIDVADCLAKFEISKAEGLKVNGVVKMTPDALEELLTGDPIIIGSGESPKFSNAFYNYIKVVSLDWKETTEPEVTVKDEKTFNEALYMQDQKVADATVVVKG

stoichiometry N [4]: 2
B2: MN3 (domain or fragment)
chain: PFEYTFGTDEGFESTGGGSTGGGETGGEVTEKYTVNFDKTAYHSRNDRVLSSFSLQQIGKDKQTVNVFASRAAYEDHTSSVFNVEAGSELTASFNYSGQWMNGYIYIDRDNDGEFSYKEGQWDQAGTDLVAYSFYTTLANPKVNDGNGYNSTGASVSGNDRSNVNPPSFTAPTEPGTYRIRFKIDWNCILPGGSSDILSDGGGVWDATLNVVAAEPEVKEEKSFTDAISMVANGVSEPVGQAQVTIKEMTDETISMTLAIVGQEDAEYTASGFTKTVDTEKNRTTYTGSLNVDGDDFG
modifications: not checked
